Measured values: US10479780B2, “Aminopyrazole derivatives” (Chugai Seiyaku Kabushiki Kaisha, priority 2015, dated 2019)
pIC50: −log10 of the molar value.

Legend:
Assay type in all cases: biochemical
human Yes1 enzyme = molecular target: T1, human Yes1 enzyme (Homo sapiens, UniProt P07947); test: Yes1 enzyme inhibitory activity (time-resolved fluorometry, biotinylated peptide phosphorylation); details: biotinylated peptide phosphorylation, read-out: YES_IC50
T1 construct: made in house
Procedure, shortened: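 Inhibition was expressed against a compound-free control to give IC50, using TR-FRET read-out (Eu-cryptate anti-pTyr antibody, streptavidin-XL665).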

human Src enzyme = molecular target: T2, human Src enzyme (Homo sapiens, UniProt P12931); test: Src enzyme inhibitory activity (time-resolved fluorometry, biotinylated peptide phosphorylation); details: biotinylated peptide phosphorylation, read-out: SRC_IC50
T2 construct: purchased Carna Biosciences, Inc. 08-173
Procedure, shortened: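 Compounds were tested for blocking tyrosine phosphorylation of a biotinylated peptide substrate by recombinant human Src. Phosphorylated product was quantified by time-resolved fluorometry using europium cryptate and XL665 conjugates, and IC50 was calculated against the compound-free control.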

human Lck enzyme = molecular target: T3, human Lck enzyme (Homo sapiens, UniProt P06239); test: Lck enzyme inhibitory activity (time-resolved fluorometry, biotinylated peptide phosphorylation); details: biotinylated peptide phosphorylation, read-out: LCK_IC50
T3 construct: purchased Carna Biosciences, Inc. 08-170
Procedure, shortened: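 Readout pairs a europium cryptate-labelled anti-phosphotyrosine antibody with XL665-streptavidin, measured by time-resolved fluorescence. IC50 derived from percent inhibition against untreated controls.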

T2 sequence (P12931 whole entry): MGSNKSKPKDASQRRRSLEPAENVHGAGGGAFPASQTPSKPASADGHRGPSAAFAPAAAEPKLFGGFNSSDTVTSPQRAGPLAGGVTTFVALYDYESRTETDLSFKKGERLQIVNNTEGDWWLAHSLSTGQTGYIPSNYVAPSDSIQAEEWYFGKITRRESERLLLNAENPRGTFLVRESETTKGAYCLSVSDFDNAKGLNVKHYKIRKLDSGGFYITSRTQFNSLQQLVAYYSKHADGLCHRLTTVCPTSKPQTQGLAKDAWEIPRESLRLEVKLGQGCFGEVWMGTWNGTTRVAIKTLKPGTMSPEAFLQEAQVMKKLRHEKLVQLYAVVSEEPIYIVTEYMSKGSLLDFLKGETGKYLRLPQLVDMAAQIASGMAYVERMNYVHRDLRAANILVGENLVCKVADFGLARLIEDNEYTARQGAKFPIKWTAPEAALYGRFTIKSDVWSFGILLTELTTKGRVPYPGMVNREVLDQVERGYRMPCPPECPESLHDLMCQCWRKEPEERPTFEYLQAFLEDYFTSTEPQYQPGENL
T1 sequence (P07947 whole entry): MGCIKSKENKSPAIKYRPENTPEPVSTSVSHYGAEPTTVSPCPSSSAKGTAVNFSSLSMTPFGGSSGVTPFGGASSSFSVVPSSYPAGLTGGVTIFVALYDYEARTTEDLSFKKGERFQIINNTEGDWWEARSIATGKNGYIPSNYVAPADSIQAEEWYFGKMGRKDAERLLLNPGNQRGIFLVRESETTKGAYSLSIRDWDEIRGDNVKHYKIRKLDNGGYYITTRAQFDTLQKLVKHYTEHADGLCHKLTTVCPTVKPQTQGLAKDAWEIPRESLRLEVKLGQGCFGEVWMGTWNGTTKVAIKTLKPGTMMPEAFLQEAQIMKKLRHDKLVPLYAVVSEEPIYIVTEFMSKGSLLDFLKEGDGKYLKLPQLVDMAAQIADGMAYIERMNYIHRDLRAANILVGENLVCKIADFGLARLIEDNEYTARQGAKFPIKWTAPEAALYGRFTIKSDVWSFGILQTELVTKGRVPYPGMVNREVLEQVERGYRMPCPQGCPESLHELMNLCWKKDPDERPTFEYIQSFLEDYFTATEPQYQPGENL
T3 sequence (P06239 whole entry): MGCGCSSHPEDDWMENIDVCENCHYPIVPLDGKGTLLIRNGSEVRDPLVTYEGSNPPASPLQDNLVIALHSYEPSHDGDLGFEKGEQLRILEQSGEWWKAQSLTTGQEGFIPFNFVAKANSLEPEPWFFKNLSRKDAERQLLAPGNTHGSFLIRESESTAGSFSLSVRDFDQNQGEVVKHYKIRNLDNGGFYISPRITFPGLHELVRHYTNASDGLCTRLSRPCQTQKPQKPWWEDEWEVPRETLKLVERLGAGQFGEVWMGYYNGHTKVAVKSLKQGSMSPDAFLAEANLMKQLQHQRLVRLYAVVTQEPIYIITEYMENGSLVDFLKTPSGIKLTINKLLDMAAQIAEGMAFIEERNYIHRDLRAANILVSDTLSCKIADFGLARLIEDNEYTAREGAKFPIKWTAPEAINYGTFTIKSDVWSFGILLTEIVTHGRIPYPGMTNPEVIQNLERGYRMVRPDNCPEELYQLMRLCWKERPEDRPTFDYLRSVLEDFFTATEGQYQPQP

SMILES | pIC50 (human Yes1 enzyme) | pIC50 (human Src enzyme) | pIC50 (human Lck enzyme)
Cc1cc(Oc2ccccc2F)ccc1-n1ncc(C(=O)c2cc3cc(OC(F)F)c(C4CCN(S(C)(=O)=O)CC4)cc3[nH]2)c1N [Example 4-17-003, [5-amino-1-[4-(2-fluorophenoxy)-2-methylphenyl]pyrazol-4-yl]-[5-(difluoromethoxy)-6-(1-methylsulfonylpiperidin-4-yl)-1H-indol-2-yl]methanone] | 8.13 | 7.64 | 7.70
Cc1cc(Oc2ccccc2F)ccc1-n1ncc(C(=O)c2cc3cc(OC(F)F)c(C4CCN(S(=O)(=O)C5CC5)CC4)cc3[nH]2)c1N [Example 4-17-004, [5-amino-1-[4-(2-fluorophenoxy)-2-methylphenyl]pyrazol-4-yl]-[6-(1-cyclopropylsulfonylpiperidin-4-yl)-5-(difluoromethoxy)-1H-indol-2-yl]methanone] | 8.02 | 7.66 | 7.77
CC(=O)N1CCC(c2cc3[nH]c(C(=O)c4cnn(-c5c(C)cc(Oc6ccccc6F)cc5F)c4N)cc3cc2OC(F)F)CC1 [Example 4-17-005, 1-[4-[2-[5-amino-1-[2-fluoro-4-(2-fluorophenoxy)-6-methylphenyl]pyrazole-4-carbonyl]-5-(difluoromethoxy)-1H-indol-6-yl]piperidin-1-yl]ethanone] | 8.54 | 7.44 | 7.77
Cc1cc(Oc2ccccc2F)cc(F)c1-n1ncc(C(=O)c2cc3cc(OC(F)F)c(C4CCN(S(C)(=O)=O)CC4)cc3[nH]2)c1N [Example 4-17-006, [5-amino-1-[2-fluoro-4-(2-fluorophenoxy)-6-methylphenyl]pyrazol-4-yl]-[5-(difluoromethoxy)-6-(1-methylsulfonylpiperidin-4-yl)-1H-indol-2-yl]methanone] | 8.47 | 7.60 | 7.89
Cc1cc(Oc2ccccc2F)cc(F)c1-n1ncc(C(=O)c2cc3cc(OC(F)F)c(C4CCN(S(=O)(=O)C5CC5)CC4)cc3[nH]2)c1N [Example 4-17-007, [5-amino-1-[2-fluoro-4-(2-fluorophenoxy)-6-methylphenyl]pyrazol-4-yl]-[6-(1-cyclopropylsulfonylpiperidin-4-yl)-5-(difluoromethoxy)-1H-indol-2-yl]methanone] | 8.41 | 7.66 | 7.92
CC(=O)N1CCC(c2cc3[nH]c(C(=O)c4cnn(-c5cnc(Oc6ccccc6F)cc5C)c4N)cc3cc2OC(F)F)CC1 [Example 4-17-008, 1-[4-[2-[5-amino-1-[6-(2-fluorophenoxy)-4-methylpyridin-3-yl]pyrazole-4-carbonyl]-5-(difluoromethoxy)-1H-indol-6-yl]piperidin-1-yl]ethanone] | 8.80 | 7.89 | 8.26
Cc1cc(Oc2ccccc2F)ncc1-n1ncc(C(=O)c2cc3cc(OC(F)F)c(C4CCN(S(C)(=O)=O)CC4)cc3[nH]2)c1N [Example 4-17-009, [5-amino-1-[6-(2-fluorophenoxy)-4-methylpyridin-3-yl]pyrazol-4-yl]-[5-(difluoromethoxy)-6-(1-methylsulfonylpiperidin-4-yl)-1H-indol-2-yl]methanone] | 8.74 | 7.85 | 8.31
Cc1cc(Oc2ccccc2F)ncc1-n1ncc(C(=O)c2cc3cc(OC(F)F)c(C4CCN(S(=O)(=O)C5CC5)CC4)cc3[nH]2)c1N [Example 4-17-010, [5-amino-1-[6-(2-fluorophenoxy)-4-methylpyridin-3-yl]pyrazol-4-yl]-[6-(1-cyclopropylsulfonylpiperidin-4-yl)-5-(difluoromethoxy)-1H-indol-2-yl]methanone] | 8.70 | 7.00 | 7.35
CC(=O)N1CCC(c2cc3[nH]c(C(=O)c4cnn(-c5cnc(Oc6c(F)cccc6F)cc5C)c4N)cc3cc2OC(F)F)CC1 [Example 4-17-011, 1-[4-[2-[5-amino-1-[6-(2,6-difluorophenoxy)-4-methylpyridin-3-yl]pyrazole-4-carbonyl]-5-(difluoromethoxy)-1H-indol-6-yl]piperidin-1-yl]ethanone] | 7.89 | 7.37 | 7.64
Cc1cc(Oc2c(F)cccc2F)ncc1-n1ncc(C(=O)c2cc3cc(OC(F)F)c(C4CCN(S(C)(=O)=O)CC4)cc3[nH]2)c1N [Example 4-17-012, [5-amino-1-[6-(2,6-difluorophenoxy)-4-methylpyridin-3-yl]pyrazol-4-yl]-[5-(difluoromethoxy)-6-(1-methylsulfonylpiperidin-4-yl)-1H-indol-2-yl]methanone] | 7.80 | 7.35 | 7.52

Results, then the compound that gave them:

pIC50 (human Yes1 enzyme) | pIC50 (human Src enzyme) | pIC50 (human Lck enzyme) | SMILES
7.77 | 7.34 | 7.43 | Cc1cc(Oc2c(F)cccc2F)ncc1-n1ncc(C(=O)c2cc3cc(OC(F)F)c(C4CCN(S(=O)(=O)C5CC5)CC4)cc3[nH]2)c1N [Example 4-17-013, [5-amino-1-[6-(2,6-difluorophenoxy)-4-methylpyridin-3-yl]pyrazol-4-yl]-[6-(1-cyclopropylsulfonylpiperidin-4-yl)-5-(difluoromethoxy)-1H-indol-2-yl]methanone]
8.35 | 7.57 | 7.89 | CC(=O)N1CCC(c2cc3[nH]c(C(=O)c4cnn(-c5ccc(Oc6ccccc6F)cc5C)c4N)cc3cc2OCC(F)F)CC1 [Example 4-17-014, 1-[4-[2-[5-amino-1-[4-(2-fluorophenoxy)-2-methylphenyl]pyrazole-4-carbonyl]-5-(2,2-difluoroethoxy)-1H-indol-6-yl]piperidin-1-yl]ethanone]
8.30 | 7.85 | 7.85 | Cc1cc(Oc2ccccc2F)ccc1-n1ncc(C(=O)c2cc3cc(OCC(F)F)c(C4CCN(S(C)(=O)=O)CC4)cc3[nH]2)c1N [Example 4-17-015, [5-amino-1-[4-(2-fluorophenoxy)-2-methylphenyl]pyrazol-4-yl]-[5-(2,2-difluoroethoxy)-6-(1-methylsulfonylpiperidin-4-yl)-1H-indol-2-yl]methanone]
8.19 | 7.82 | 7.92 | Cc1cc(Oc2ccccc2F)ccc1-n1ncc(C(=O)c2cc3cc(OCC(F)F)c(C4CCN(S(=O)(=O)C5CC5)CC4)cc3[nH]2)c1N [Example 4-17-016, [5-amino-1-[4-(2-fluorophenoxy)-2-methylphenyl]pyrazol-4-yl]-[6-(1-cyclopropylsulfonylpiperidin-4-yl)-5-(2,2-difluoroethoxy)-1H-indol-2-yl]methanone]
8.68 | 7.77 | 8.24 | CC(=O)N1CCC(c2cc3[nH]c(C(=O)c4cnn(-c5c(C)cc(Oc6ccccc6F)cc5F)c4N)cc3cc2OCC(F)F)CC1 [Example 4-17-017, 1-[4-[2-[5-amino-1-[2-fluoro-4-(2-fluorophenoxy)-6-methylphenyl]pyrazole-4-carbonyl]-5-(2,2-difluoroethoxy)-1H-indol-6-yl]piperidin-1-yl]ethanone]
8.62 | 7.72 | 7.96 | Cc1cc(Oc2ccccc2F)cc(F)c1-n1ncc(C(=O)c2cc3cc(OCC(F)F)c(C4CCN(S(C)(=O)=O)CC4)cc3[nH]2)c1N [Example 4-17-018, [5-amino-1-[2-fluoro-4-(2-fluorophenoxy)-6-methylphenyl]pyrazol-4-yl]-[5-(2,2-difluoroethoxy)-6-(1-methylsulfonylpiperidin-4-yl)-1H-indol-2-yl]methanone]
8.49 | 7.74 | 8.04 | Cc1cc(Oc2ccccc2F)cc(F)c1-n1ncc(C(=O)c2cc3cc(OCC(F)F)c(C4CCN(S(=O)(=O)C5CC5)CC4)cc3[nH]2)c1N [Example 4-17-019, [5-amino-1-[2-fluoro-4-(2-fluorophenoxy)-6-methylphenyl]pyrazol-4-yl]-[6-(1-cyclopropylsulfonylpiperidin-4-yl)-5-(2,2-difluoroethoxy)-1H-indol-2-yl]methanone]
9.09 | 8.08 | 8.48 | CC(=O)N1CCC(c2cc3[nH]c(C(=O)c4cnn(-c5cnc(Oc6ccccc6F)cc5C)c4N)cc3cc2OCC(F)F)CC1 [Example 4-17-020, 1-[4-[2-[5-amino-1-[6-(2-fluorophenoxy)-4-methylpyridin-3-yl]pyrazole-4-carbonyl]-5-(2,2-difluoroethoxy)-1H-indol-6-yl]piperidin-1-yl]ethanone]
9.12 | 8.01 | 8.25 | Cc1cc(Oc2ccccc2F)ncc1-n1ncc(C(=O)c2cc3cc(OCC(F)F)c(C4CCN(S(C)(=O)=O)CC4)cc3[nH]2)c1N [Example 4-17-021, [5-amino-1-[6-(2-fluorophenoxy)-4-methylpyridin-3-yl]pyrazol-4-yl]-[5-(2,2-difluoroethoxy)-6-(1-methylsulfonylpiperidin-4-yl)-1H-indol-2-yl]methanone]
8.89 | 7.85 | 8.10 | Cc1cc(Oc2ccccc2F)ncc1-n1ncc(C(=O)c2cc3cc(OCC(F)F)c(C4CCN(S(=O)(=O)C5CC5)CC4)cc3[nH]2)c1N [Example 4-17-022, [5-amino-1-[6-(2-fluorophenoxy)-4-methylpyridin-3-yl]pyrazol-4-yl]-[6-(1-cyclopropylsulfonylpiperidin-4-yl)-5-(2,2-difluoroethoxy)-1H-indol-2-yl]methanone]
8.17 | 7.57 | 7.68 | Cc1cc(Oc2c(F)cccc2F)ncc1-n1ncc(C(=O)c2cc3cc(OCC(F)F)c(C4CCN(S(C)(=O)=O)CC4)cc3[nH]2)c1N [Example 4-17-023, [5-amino-1-[6-(2,6-difluorophenoxy)-4-methylpyridin-3-yl]pyrazol-4-yl]-[5-(2,2-difluoroethoxy)-6-(1-methylsulfonylpiperidin-4-yl)-1H-indol-2-yl]methanone]
